# Assay results taken from US8143254B2, “Methods for modulating ion channels” (Cornell Research Foundation, Inc., priority 2005, dated 2012).
# Read-outs that look alike come from different tables or passages of the source.
# Target: T1, MiRP2-Kv2.1 (Rattus norvegicus, UniProt P15387)
# T1 construct: expressed in transfected cells; host or cells: Xenopus oocytes (co-injected cRNA)
# T1 sequence (P15387 1-857): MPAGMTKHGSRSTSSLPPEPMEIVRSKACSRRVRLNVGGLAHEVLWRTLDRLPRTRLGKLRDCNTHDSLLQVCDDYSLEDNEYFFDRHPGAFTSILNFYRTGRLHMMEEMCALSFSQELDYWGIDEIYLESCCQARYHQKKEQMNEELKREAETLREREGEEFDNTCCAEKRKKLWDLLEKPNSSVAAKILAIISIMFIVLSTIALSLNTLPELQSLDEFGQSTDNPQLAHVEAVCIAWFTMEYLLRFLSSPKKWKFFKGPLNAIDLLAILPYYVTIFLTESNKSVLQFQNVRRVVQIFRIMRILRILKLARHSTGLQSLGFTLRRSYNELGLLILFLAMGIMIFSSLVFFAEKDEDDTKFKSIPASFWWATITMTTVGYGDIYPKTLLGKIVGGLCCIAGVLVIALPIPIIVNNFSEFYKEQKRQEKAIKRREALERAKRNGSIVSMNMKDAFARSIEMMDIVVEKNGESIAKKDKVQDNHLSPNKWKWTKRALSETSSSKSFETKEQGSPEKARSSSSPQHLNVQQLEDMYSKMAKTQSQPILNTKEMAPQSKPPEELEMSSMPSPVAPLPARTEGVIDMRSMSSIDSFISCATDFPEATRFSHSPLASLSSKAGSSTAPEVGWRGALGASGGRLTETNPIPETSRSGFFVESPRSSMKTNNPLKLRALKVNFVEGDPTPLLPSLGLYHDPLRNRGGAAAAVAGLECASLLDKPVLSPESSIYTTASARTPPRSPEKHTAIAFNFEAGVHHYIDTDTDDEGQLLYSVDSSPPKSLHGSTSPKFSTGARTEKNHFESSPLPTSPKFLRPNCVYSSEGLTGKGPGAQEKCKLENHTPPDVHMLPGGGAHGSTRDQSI
# T1 sequence (Q9Y6H6 1-103 partner): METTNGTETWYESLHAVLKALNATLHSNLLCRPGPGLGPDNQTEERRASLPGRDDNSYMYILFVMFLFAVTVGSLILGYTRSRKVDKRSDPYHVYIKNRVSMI
# Assay: TEVC of Xenopus oocytes co-injected with Kv2.1 and MiRP2 cRNA
# Format: cell-based
# Conditions: for p (Hill slope) of logistic dose-response fit: MiRP2-Kv2.1; for effect of MiRP2 on sensitivity of Kv2.1 to the compound: MiRP2-Kv2.1 versus Kv2.1 alone
# Method: Stage V-VI Xenopus oocytes are separated into small groups using forceps, defolliculated by agitation in Ca^2+-free Ringer solution containing collagenase for one hour, washed, then stored at 15° C. in full Ringers solution before injection. cRNA sufficient to give 1-10 μA of current at physiological voltages for each channel type is injected into Xenopus oocytes (selected by appearance for overall health and uniformity of color) using a Sutter manual injector (typically 0.1-5 ng cRNA in a volume of 25-50 nl). The oocytes are then stored for 1-3 days at 15° C. before TEVC recording. Beta subunit cRNA is co-injected as appropriate, typically 2 ng per oocyte.
# Whole cell oocyte experiments are performed using a Warner OC-725C amplifier and pClamp9 software with oocytes bathed in a small-volume Warner oocyte bath and viewed with a Fisher dissection microscope. Bath solution for whole cell oocyte recordings, e.g., for potassium channel analysis, is generally (in mM): 96 NaCl, 4 KCl, 1 MgCl2, 0.3 CaCl2, 10 HEPES (Ph 7.4); whole-cell oocyte TEVC pipettes are filled with 3 M KCl. Oocyte patches are studies using an Axon Instruments small-volume bath, viewed with an Olympus IX50 inverted microscope, and recordings made using an Axon Multiclamp 700 A Amplifier and pCLAMP9 software (Axon Instruments). Extracellular solution, e.g., for potassium channel analysis, is generally (in mM): 135 NaCl, 5 KCl, 1.2 MgCl2, 5 HEPES, 2.5 CaCl2, 10 D-glucose (Ph 7.4). Intracellular solution, e.g., for potassium channel analysis, is generally (in mM): 10 NaCl, 117 KCl, 2 MgCl2, 11 HEPES, 11 EGTA, ICaCl2 (Ph 7.2). Patch pipettes are approximately 3-5 MΩ resistance when filled with recording solution.
# Quantitative aspects of ion action on ion channels are compared using standard pulse protocols. Pulse times and voltages will vary according to which currents are being studied. I/V and G/V curves are typically fit to a standard Boltzmann function: 1/{1+exp[(V1/2−V)/Vs]}, where V1/2 is the half-maximal voltage of activation and Vs the slope factor, for quantification and comparison. Kinetics of drug effects upon wash-in are generally fit with single or multiple exponential functions and values for τ and amplitude reported. Drug inhibition constants are calculated after generating a dose response curve by fitting with a logistic dose-response function (see equation (i) below). Typically, 5-20 cells per group are recorded from for heterologous expression experiments. Values are to be stated as mean±SEM with statistical significance set at p<0.05 (unpaired students t-test, ANOVA or the Mann-Whitney Rank Sum Test as appropriate).
# Injected oocytes, bathed in bath solution containing 4 mM KCl, unless otherwise stated, are impaled with current and voltage electrodes and clamped at −80 mV holding potential using a Warner OC-725C amplifier. For single-voltage dose-response assessment, currents are recorded for several pulses (each of 1-5 s at a frequency of 0.1 Hz depending upon channel type) in the absence of drug, until equilibrium current level is reached, and then during further pulses with bath application of various concentrations of drug, each until equilibrium current inhibition is observed, with a washout phase in between to eliminate the possibility of channel run-down and other non-drug effects. […] Drug concentrations are chosen to ensure inhibition values between 0 and 90-100% with at least 3 values within the linear portion of the curve so that the inhibition constant (Ki) can be calculated accurately by fitting with a logistic dose-response function (formula (i)) using the Origin 6.1 graph package.
# We explored blocking effects on Kv2.1 with and without the MiRP2 ancillary subunit. Kv2.1 can co-assemble with MiRP2 in rat brain. The sensitivities of two diammonium compounds (JE188 and TA279) were analyzed by functional expression in Xenopus oocytes using two-electrode voltage clamp (TEVC), and bath application of the compounds at various concentrations. […]
Compound,p (Hill slope) of logistic dose-response fit,"IC50 (MiRP2-Kv2.1, external bath application, read-out: x0 of logistic dose-response fit of current inhibition (converted)) [µM]",effect of MiRP2 on sensitivity of Kv2.1 to the compound,IC50 [µM]
"CCCCCCCCCCCC[N+]12CCN(CC1)CC2 [JE188, 1-aza-4-azonia-4-dodecylbicyclo[2.2.2]octane]",1.6±0.2,49.2 ± 8.2,two-fold decrease in sensitivity,–
"CCCCCCCCCCCCCCCC[N+]12CCN(CC1)CC2 [TA279, 1-aza-4-azonia-4-hexadecylbicyclo[2.2.2]octane]",0.8±0.2,–,did not significantly alter inhibition,1.3 ± 0.4
